According to US20260138976A1 (Hoffmann-La Roche Inc., priority 2022, published 2026):

Columns and labels:
primary human T-cells = experiment: IL2 secretion measurements (24 h, CD3-stimulated T-cells, PBS counter screen); assay type: cell-based; conditions: for Emax IL2 (% activation): CD3 condition, normalised to DMSO (neutral) and 20 μM reference compound A1 = 100%; for EC50: Homo sapiens, T-cell, CD3-stimulated primary human T-cells, IL2 secretion, fitted sigmoidal curve, read-out: Tcell IL2 CD3 EC50
Summary of the method: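 Expanded primary human T-cells (100k/well) were plated on anti-CD3-coated or PBS-only plates with compound in a 5–6 point dose response (top 20 or 10 μM final, 3.333-fold, 0.2% DMSO). IL-2 in 24 h supernatants was quantified by ProQuantum immunoassay or ELISA. Values were normalized to DMSO and 20 μM reference compound A1 (100%), giving EC50 and Emax.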

[1] = target: T1, DGKα (hDGKalpha(1-735)-N-His) (Homo sapiens, UniProt P23743); experiment: In vitro DGK inhibition assay, DGKalpha ADP Glo (in house); assay type: biochemical; conditions: 4 nM DGKα, 25 μM ATP, 125 uM DLG in liposomes, 1 hour reaction
T1 construct: hDGKalpha(1-735)-N-His; His (N); made in house; host or cells: Sf21 insect cells (baculovirus)
Summary of the method: (§1)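 Full-length His-tagged human DGKα (4 nM) or DGKζ (2 nM), expressed in Sf21 cells, phosphorylated 125 µM DLG in PS/PC liposomes with ATP at 25 µM (α) or 50 µM (ζ) for 1 h. ADP was measured by ADP-Glo luminescence. Compounds were tested as 11-point 1:3 series in 2% DMSO.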

[2] = target: T2, DGKζ (hDGKzeta(1-928)-N-His) (Homo sapiens, UniProt Q13574); experiment: In vitro DGK inhibition assay, DGKzeta ADP Glo (in house); assay type: biochemical; conditions: 2 nM DGKζ, 50 μM ATP, 125 uM DLG in liposomes, 1 hour reaction
T2 construct: hDGKzeta(1-928)-N-His; His (N); made in house; host or cells: Sf21 insect cells (baculovirus)
Summary of the method: as §1

T1 sequence (P23743 whole entry): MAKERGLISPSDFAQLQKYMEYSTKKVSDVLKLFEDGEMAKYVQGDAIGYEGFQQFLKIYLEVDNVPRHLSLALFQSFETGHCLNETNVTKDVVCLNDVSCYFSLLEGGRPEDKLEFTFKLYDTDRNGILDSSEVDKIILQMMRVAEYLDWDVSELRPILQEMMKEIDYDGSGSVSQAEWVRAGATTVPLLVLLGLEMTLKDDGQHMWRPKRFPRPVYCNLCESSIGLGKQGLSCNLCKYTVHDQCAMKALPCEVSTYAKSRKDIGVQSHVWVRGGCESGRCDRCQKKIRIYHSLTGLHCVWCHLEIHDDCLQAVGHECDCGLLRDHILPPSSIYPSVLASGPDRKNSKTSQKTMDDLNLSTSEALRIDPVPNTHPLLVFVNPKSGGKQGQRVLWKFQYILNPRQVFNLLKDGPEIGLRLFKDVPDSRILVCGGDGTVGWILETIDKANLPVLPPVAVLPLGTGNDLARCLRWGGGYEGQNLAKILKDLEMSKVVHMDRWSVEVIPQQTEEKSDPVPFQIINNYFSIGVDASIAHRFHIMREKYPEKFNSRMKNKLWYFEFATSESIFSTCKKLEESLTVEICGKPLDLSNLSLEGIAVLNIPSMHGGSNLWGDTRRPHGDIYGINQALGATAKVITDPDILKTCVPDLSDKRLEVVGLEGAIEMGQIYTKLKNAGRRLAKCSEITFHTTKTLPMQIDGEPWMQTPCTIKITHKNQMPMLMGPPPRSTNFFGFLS
T2 sequence (Q13574 whole entry): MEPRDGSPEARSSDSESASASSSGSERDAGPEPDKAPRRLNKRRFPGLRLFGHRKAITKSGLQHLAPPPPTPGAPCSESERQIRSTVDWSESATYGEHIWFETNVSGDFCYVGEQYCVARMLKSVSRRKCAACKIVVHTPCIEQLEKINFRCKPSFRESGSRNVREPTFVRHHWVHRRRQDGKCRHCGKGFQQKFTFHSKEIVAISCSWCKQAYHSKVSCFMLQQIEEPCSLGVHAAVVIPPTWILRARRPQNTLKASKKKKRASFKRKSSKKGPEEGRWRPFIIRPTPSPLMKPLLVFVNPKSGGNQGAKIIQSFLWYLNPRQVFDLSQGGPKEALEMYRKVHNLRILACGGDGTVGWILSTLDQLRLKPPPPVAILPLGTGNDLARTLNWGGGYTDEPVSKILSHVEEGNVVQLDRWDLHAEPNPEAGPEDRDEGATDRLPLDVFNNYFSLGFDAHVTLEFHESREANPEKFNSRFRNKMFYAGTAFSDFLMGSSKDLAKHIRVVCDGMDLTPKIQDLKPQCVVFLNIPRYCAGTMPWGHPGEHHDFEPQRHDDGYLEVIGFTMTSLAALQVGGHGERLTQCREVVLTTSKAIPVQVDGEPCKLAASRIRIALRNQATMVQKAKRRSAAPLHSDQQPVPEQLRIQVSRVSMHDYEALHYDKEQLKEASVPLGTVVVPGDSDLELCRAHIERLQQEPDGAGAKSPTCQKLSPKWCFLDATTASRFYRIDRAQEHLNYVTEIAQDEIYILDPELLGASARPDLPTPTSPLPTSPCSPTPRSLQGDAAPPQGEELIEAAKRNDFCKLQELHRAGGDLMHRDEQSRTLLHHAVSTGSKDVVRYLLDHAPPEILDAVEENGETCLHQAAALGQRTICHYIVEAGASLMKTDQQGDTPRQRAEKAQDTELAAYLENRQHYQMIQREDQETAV

Compound	Emax IL2 (% activation) (primary human T-cells)	EC50 (primary human T-cells)	IC50 [1]	IC50 [2]
N[C@H]1CS(=O)(=O)c2cc(F)c(-c3noc(N4CCCC4)n3)cc2N(Cc2ccc(-c3noc(C(F)(F)F)n3)nc2)C1=O [Example 15, (3R)-3-amino-8-fluoro-1,1-dioxo-7-(5-pyrrolidin-1-yl-1,2,4-oxadiazol-3-yl)-5-[[6-[5-(trifluoromethyl)-1,2,4-oxadiazol-3-yl]-3-pyridyl]methyl]-2,3-dihydro-1λ^6,5-benzothiazepin-4-one]	39 % activation	> 10000 nM	40300 nM	466 nM
CC(C)Nc1nnc(-c2cc3c(cc2F)S(=O)(=O)C[C@H](N)C(=O)N3Cc2ccc(-c3noc(C(F)(F)F)n3)cc2)o1 [Example 6, (3R)-3-amino-8-fluoro-7-[5-(isopropylamino)-1,3,4-oxadiazol-2-yl]-1,1-dioxo-5-[[4-[5-(trifluoromethyl)-1,2,4-oxadiazol-3-yl]phenyl]methyl]-2,3-dihydro-1λ^6,5-benzothiazepin-4-one]	212 % activation	1170 nM	1870 nM	696 nM
COC(=O)N1CC2CC(c3nnc(-c4ccc5c(c4)N(Cc4ccc(-c6ccc(C(F)(F)F)cc6)cc4)C(=O)[C@@H](N)CS5(=O)=O)o3)(C2)C1 [Example 60, methyl 1-[5-[(3R)-3-amino-1,1,4-trioxo-5-[[4-[4-(trifluoromethyl)phenyl]phenyl]methyl]-2,3-dihydro-1λ^6,5-benzothiazepin-7-yl]-1,3,4-oxadiazol-2-yl]-3-azabicyclo[3.1.1]heptane-3-carboxylate]	163 % activation	424 nM	3630 nM	3080 nM
CC1(c2nnc(-c3ccc4c(c3)N(Cc3ccc(-c5noc(C(F)(F)F)n5)cc3)C(=O)[C@@H](N)CS4(=O)=O)o2)COC1 [Example 149, (3R)-3-amino-7-[5-(3-methyloxetan-3-yl)-1,3,4-oxadiazol-2-yl]-1,1-dioxo-5-[[4-[5-(trifluoromethyl)-1,2,4-oxadiazol-3-yl]phenyl]methyl]-2,3-dihydro-1λ^6,5-benzothiazepin-4-one]	268 % activation	567 nM	> 62500 nM	4250 nM
C[C@@](N)(c1nnc(-c2ccc3c(c2)N(Cc2ccc(-c4noc(C(F)(F)F)n4)cc2)C(=O)[C@@H](N)CS3(=O)=O)o1)C(F)(F)F [Example 52, (3R)-3-amino-7-[5-[(1R)-1-amino-2,2,2-trifluoro-1-methyl-ethyl]-1,3,4-oxadiazol-2-yl]-1,1-dioxo-5-[[4-[5-(trifluoromethyl)-1,2,4-oxadiazol-3-yl]phenyl]methyl]-2,3-dihydro-1λ^6,5-benzothiazepin-4-one]	164 % activation	645 nM	25200 nM	2320 nM
N[C@H]1CS(=O)(=O)c2ccc(-c3nnc(N4CCOC(C(F)(F)F)C4)o3)cc2N(Cc2ccc(-c3noc(C(F)(F)F)n3)cc2)C1=O (stereo partly drawn) [Example 74, (3R)-3-amino-1,1-dioxo-7-[5-[2-(trifluoromethyl)morpholin-4-yl]-1,3,4-oxadiazol-2-yl]-5-[[4-[5-(trifluoromethyl)-1,2,4-oxadiazol-3-yl]phenyl]methyl]-2,3-dihydro-1λ^6,5-benzothiazepin-4-one]	206 % activation	1460 nM	3660 nM	770 nM
N[C@H]1CS(=O)(=O)c2ccc(-c3noc(C4(N)COC4)n3)cc2N(Cc2ccc(-c3noc(C(F)(F)F)n3)cc2)C1=O [Example 84, (3R)-3-amino-7-[5-(3-aminooxetan-3-yl)-1,2,4-oxadiazol-3-yl]-1,1-dioxo-5-[[4-[5-(trifluoromethyl)-1,2,4-oxadiazol-3-yl]phenyl]methyl]-2,3-dihydro-1lambda6,5-benzothiazepin-4-one]	33 % activation	> 10000 nM	> 62500 nM	3070 nM
COC(=O)N1CC2CC(c3nnc(-c4ccc5c(c4)N(Cc4ccc(-c6ccc(C(F)(F)F)cn6)cc4)C(=O)[C@@H](N)CS5(=O)=O)o3)(C2)C1 [Example 159, methyl 1-[5-[(3R)-3-amino-1,1,4-trioxo-5-[[4-[5-(trifluoromethyl)-2-pyridyl]phenyl]methyl]-2,3-dihydro-1λ^6,5-benzothiazepin-7-yl]-1,3,4-oxadiazol-2-yl]-3-azabicyclo[3.1.1]heptane-3-carboxylate]	188 % activation	912 nM	1950 nM	1350 nM
COC(=O)N1CC2CC(c3nnc(-c4ccc5c(c4)N(Cc4ccc(-c6ccc(OC)cc6)cc4)C(=O)[C@@H](N)CS5(=O)=O)o3)(C2)C1 [Example 59, methyl 1-[5-[(3R)-3-amino-5-[[4-(4-methoxyphenyl)phenyl]methyl]-1,1,4-trioxo-2,3-dihydro-1λ^6,5-benzothiazepin-7-yl]-1,3,4-oxadiazol-2-yl]-3-azabicyclo[3.1.1]heptane-3-carboxylate]	175 % activation	596 nM	3040 nM	1140 nM
N[C@H]1CS(=O)(=O)c2ccc(-c3nnc(C4(CO)CCCO4)o3)cc2N(Cc2ccc(-c3ccc(C(F)(F)F)cc3)cc2)C1=O (some centres unmarked) [Example 55]	74 % activation	3110 nM	> 62500 nM	20300 nM
CC(c1nc(-c2ccc(CN3C(=O)[C@@H](N)CS(=O)(=O)c4ccc(-c5nnc(C6(N)CCCCC6)o5)cc43)cc2)no1)C(F)(F)F (stereo partly drawn) [Example 98, (3R)-3-amino-7-[5-(1-aminocyclohexyl)-1,3,4-oxadiazol-2-yl]-1,1-dioxo-5-[[4-[5-(2,2,2-trifluoro-1-methyl-ethyl)-1,2,4-oxadiazol-3-yl]phenyl]methyl]-2,3-dihydro-1λ^6,5-benzothiazepin-4-one]	97 % activation	1370 nM	23800 nM	1030 nM
N[C@H]1CS(=O)(=O)c2ccc(-c3nnc(N4CCOC(C(F)(F)F)C4)o3)cc2N(Cc2ccc(-c3ccc(C(F)(F)F)cc3)cc2)C1=O (stereo partly drawn) [Example 73, (3R)-3-amino-1,1-dioxo-7-[5-[2-(trifluoromethyl)morpholin-4-yl]-1,3,4-oxadiazol-2-yl]-5-[[4-[4-(trifluoromethyl)phenyl]phenyl]methyl]-2,3-dihydro-1λ^6,5-benzothiazepin-4-one]	116 % activation	2530 nM	> 62500 nM	13600 nM
CC(C)(C#N)c1nnc(-c2ccc3c(c2)N(Cc2ccc(-c4ccc(C(F)(F)F)cn4)cc2)C(=O)[C@@H](N)CS3(=O)=O)o1 [Example 47]	163 % activation	670 nM	7280 nM	842 nM
Cc1noc(-c2ccc(CN3C(=O)[C@@H](N)CS(=O)(=O)c4ccc(-c5nnc(C(C)(C)C)o5)cc43)cc2)n1 [Example 20, (3R)-3-amino-7-(5-tert-butyl-1,3,4-oxadiazol-2-yl)-5-[[4-(3-methyl-1,2,4-oxadiazol-5-yl)phenyl]methyl]-1,1-dioxo-2,3-dihydro-1λ^6,5-benzothiazepin-4-one]	82 % activation	7630 nM	4960 nM	1240 nM
N[C@H]1CS(=O)(=O)c2ccc(-c3nnc(N4CCOC(F)(F)C4)o3)cc2N(Cc2ccc(-c3noc(C(F)(F)F)n3)cc2)C1=O [Example 78, (3R)-3-amino-7-[5-(2,2-difluoromorpholin-4-yl)-1,3,4-oxadiazol-2-yl]-1,1-dioxo-5-[[4-[5-(trifluoromethyl)-1,2,4-oxadiazol-3-yl]phenyl]methyl]-2,3-dihydro-1λ^6,5-benzothiazepin-4-one]	216 % activation	2340 nM	43300 nM	2530 nM
COc1ccc(-c2ccc(CN3C(=O)[C@@H](N)CS(=O)(=O)c4ccc(-c5nnc(C6(CO)CCCO6)o5)cc43)cc2)cc1 (stereo partly drawn) [Example 63, (3R)-3-amino-7-[5-[2-(hydroxymethyl)tetrahydrofuran-2-yl]-1,3,4-oxadiazol-2-yl]-5-[[4-(4-methoxyphenyl)phenyl]methyl]-1,1-dioxo-2,3-dihydro-1λ^6,5-benzothiazepin-4-one]	78 % activation	2410 nM	33700 nM	1720 nM
COCCN1CC(c2nnc(-c3ccc4c(c3)N(Cc3ccc(-c5ccc(OC)cc5)cc3)C(=O)[C@@H](N)CS4(=O)=O)o2)CC(F)(F)C1 (stereo partly drawn) [Example 183, (3R)-3-amino-7-[5-[5,5-difluoro-1-(2-methoxyethyl)-3-piperidyl]-1,3,4-oxadiazol-2-yl]-5-[[4-(4-methoxyphenyl)phenyl]methyl]-1,1-dioxo-2,3-dihydro-1λ^6,5-benzothiazepin-4-one]	69 % activation	6440 nM	> 62500 nM	970 nM
